Data as given in PubChem BioAssay AID248 (DTP/NCI, 2004).
“And” between values parts separate entries of the source, which are not always exact repeats. Equal entries are not always repeated. Toxic doses and inconclusive results are not listed. Cut-off read from the data, not from the text of the source: active = T/C of 150% or more; inactive = T/C below 125%.

Test system: L1210 leukemia ip in BDF1 mice, survival T/C
Experiment: NCI In Vivo Anticancer Drug Screen. Data for tumor model L1210 Leukemia (intraperitoneal) in B6D2F1 (BDF1) mice
Settings: higher = longer survival
Method in brief: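 Antitumor effect is assessed in tumor-bearing animals. Survival in the compound arm is compared with a vehicle-dosed control arm and expressed as their quotient.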

[1] = endpoint: mean survival time, dose: 100.0 mg/kg/injection, schedule: Q01DX009 (ip), vehicle: saline with Tween-80
[2] = endpoint: mean survival time, dose: 200.0 mg/kg/injection, schedule: Q01DX009 (ip), vehicle: saline with Tween-80
[3] = endpoint: mean survival time, dose: 100.0 mg/kg/injection, schedule: Q04DX003 (ip), vehicle: saline with Tween-80
[4] = endpoint: mean survival time, dose: 200.0 mg/kg/injection, schedule: Q04DX003 (ip), vehicle: saline with Tween-80
[5] = endpoint: mean survival time, dose: 400.0 mg/kg/injection, schedule: Q04DX003 (ip), vehicle: saline with Tween-80

Measured: T/C

COC(=O)c1cc(Cl)cc(N)c1Cl
inactive: endpoint: mean survival time, dose: 100.0 mg/kg/injection, schedule: Q04DX002 (ip), vehicle: Klucel (hydroxypropylcellulose) (HPC) 98 % of control | endpoint: mean survival time, dose: 200.0 mg/kg/injection, schedule: Q04DX002 (ip), vehicle: Klucel (hydroxypropylcellulose) (HPC) 98 % of control | endpoint: mean survival time, dose: 400.0 mg/kg/injection, schedule: Q04DX002 (ip), vehicle: Klucel (hydroxypropylcellulose) (HPC) 91 % of control

CCC(/C=N/NC(N)=O)c1ccccc1OC (stereo unspecified)
inactive: endpoint: mean survival time, dose: 100.0 mg/kg/injection, schedule: Q01DX001 (ip), vehicle: saline 96 % of control | endpoint: mean survival time, dose: 200.0 mg/kg/injection, schedule: Q01DX001 (ip), vehicle: saline 104 % of control | endpoint: mean survival time, dose: 400.0 mg/kg/injection, schedule: Q01DX001 (ip), vehicle: saline 109 % of control

c1ccc(N2CCN(c3ccccc3)CC2)cc1
inactive: [1] 98 % of control | [2] 86 % of control

CCOC(=O)c1c[nH]c2oc(/C=N/N3CC(CN4CCOCC4)OC3=O)cc2c1=O (stereo unspecified)
active: endpoint: median survival time, dose: 200.0 mg/kg/injection, schedule: Q01DX009 (ip), vehicle: acid diluted with saline 152 % of control
inactive: endpoint: median survival time, dose: 25.0 mg/kg/injection, schedule: Q01DX009 (ip), vehicle: acid diluted with saline 110 % of control | endpoint: median survival time, dose: 50.0 mg/kg/injection, schedule: Q01DX009 (ip), vehicle: acid diluted with saline 111 % of control

Cc1c(C(N)=O)sc2ccccc12
inactive: endpoint: mean survival time, dose: 100.0 mg/kg/injection, schedule: Q01DX001 (ip), vehicle: carboxymethylcellulose (CMC) 89 % of control | endpoint: mean survival time, dose: 200.0 mg/kg/injection, schedule: Q01DX001 (ip), vehicle: carboxymethylcellulose (CMC) 107 % of control | endpoint: mean survival time, dose: 400.0 mg/kg/injection, schedule: Q01DX001 (ip), vehicle: carboxymethylcellulose (CMC) 94 % of control

CC1CCCCN1C(=O)Nc1ccc(Cl)cc1[N+](=O)[O-] (stereo unspecified)
inactive: endpoint: mean survival time, dose: 100.0 mg/kg/injection, schedule: Q01DX009 (ip), vehicle: Klucel (hydroxypropylcellulose) (HPC) 100 % of control | endpoint: mean survival time, dose: 200.0 mg/kg/injection, schedule: Q01DX009 (ip), vehicle: Klucel (hydroxypropylcellulose) (HPC) 91 % of control | endpoint: mean survival time, dose: 400.0 mg/kg/injection, schedule: Q01DX009 (ip), vehicle: Klucel (hydroxypropylcellulose) (HPC) 92 % of control

CCOC(=O)CC1C(=O)Oc2ccc(O)cc21 (stereo unspecified) (tested in a mixture with another compound)
inactive: [1] 100 % of control | [3] 96 % of control | [2] 97 % of control | [4] 110 % of control | endpoint: mean survival time, dose: 400.0 mg/kg/injection, schedule: Q01DX009 (ip), vehicle: saline with Tween-80 90 % of control | [5] 94 % of control

N#CCc1[nH]cnc1C#N
inactive: endpoint: mean survival time, dose: 100.0 mg/kg/injection, schedule: Q04DX003 (ip), vehicle: water 100 % of control and 111 % of control and 115 % of control | endpoint: mean survival time, dose: 200.0 mg/kg/injection, schedule: Q04DX003 (ip), vehicle: water 95 % of control and 115 % of control | endpoint: mean survival time, dose: 300.0 mg/kg/injection, schedule: Q04DX003 (ip), vehicle: water 113 % of control | endpoint: mean survival time, dose: 400.0 mg/kg/injection, schedule: Q04DX003 (ip), vehicle: water 100 % of control (2×) and 122 % of control

CCC(C)(O)C(=O)O (stereo unspecified)
inactive: endpoint: mean survival time, dose: 100.0 mg/kg/injection, schedule: Q04DX002 (ip), vehicle: saline 114 % of control | endpoint: mean survival time, dose: 200.0 mg/kg/injection, schedule: Q04DX002 (ip), vehicle: saline 114 % of control

CCCCCCCCCCC(=O)N(CC)CC
inactive: endpoint: mean survival time, dose: 100.0 mg/kg/injection, schedule: Q01DX009 (ip), vehicle: carboxymethylcellulose (CMC) 97 % of control and 92 % of control | endpoint: mean survival time, dose: 100.0 mg/kg/injection, schedule: Q04DX002 (ip), vehicle: carboxymethylcellulose (CMC) 94 % of control | endpoint: mean survival time, dose: 200.0 mg/kg/injection, schedule: Q01DX009 (ip), vehicle: carboxymethylcellulose (CMC) 97 % of control and 100 % of control | endpoint: mean survival time, dose: 200.0 mg/kg/injection, schedule: Q04DX002 (ip), vehicle: carboxymethylcellulose (CMC) 96 % of control | endpoint: mean survival time, dose: 400.0 mg/kg/injection, schedule: Q01DX009 (ip), vehicle: carboxymethylcellulose (CMC) 96 % of control | endpoint: mean survival time, dose: 400.0 mg/kg/injection, schedule: Q04DX002 (ip), vehicle: carboxymethylcellulose (CMC) 100 % of control

COC(=O)CNC(=O)C(Cc1ccc(O)cc1)NC(=O)OC(C)(C)C (stereo unspecified)
inactive: endpoint: mean survival time, dose: 50.0 mg/kg/injection, schedule: Q01DX005 (ip), vehicle: saline 95 % of control | endpoint: mean survival time, dose: 100.0 mg/kg/injection, schedule: Q01DX005 (ip), vehicle: saline 105 % of control | endpoint: mean survival time, dose: 200.0 mg/kg/injection, schedule: Q01DX005 (ip), vehicle: saline 96 % of control | endpoint: mean survival time, dose: 400.0 mg/kg/injection, schedule: Q01DX005 (ip), vehicle: saline 98 % of control

CC(=O)N(c1ccccc1)c1ccc(-c2ccc(N(C(C)=O)c3ccccc3)cc2)cc1
inactive: endpoint: mean survival time, dose: 50.0 mg/kg/injection, schedule: Q01DX001 (ip), vehicle: other 100 % of control | endpoint: mean survival time, dose: 100.0 mg/kg/injection, schedule: Q01DX001 (ip), vehicle: other 105 % of control | endpoint: mean survival time, dose: 200.0 mg/kg/injection, schedule: Q01DX001 (ip), vehicle: other 100 % of control | endpoint: mean survival time, dose: 400.0 mg/kg/injection, schedule: Q01DX001 (ip), vehicle: other 89 % of control

COc1cc(CC2Cc3cccc(=O)c(O)c3C(=O)O2)cc(OC)c1OC (stereo unspecified)
inactive: [3] 90 % of control | [4] 95 % of control | [5] 92 % of control
